The conditions of assay [1]: known from Saito et al.; cited from earlier work.
The test system of assay [2] is RPS19-deficient murine erythroid progenitor cells. The assay can be described thus: Phenotypic assay for rescued cell proliferation of murine RPS19-deficient erythroid progenitor cells. Format: cell-based, mouse. The conditions noted are these: for Emax / EC50: Mus musculus, Erythroid progenitor cell; for Emax: maximal proliferation rescue, read-out: ECMAX (% rescue); for EC50: proliferation rescue of RPS19-deficient erythroid progenitor cells; for rescue of proliferation (in words): RPS19-deficient murine erythroid progenitor cells. From the text:
Correction of reduced proliferative capacity of RPS19-deficient erythroid progenitors was used as readout in a phenotypic screen for novel drug candidates.

For assay [3], the system named is DBA patient CD34+ cells. The assay can be described thus: Proliferation of erythroid DBA patient CD34+ cells in vitro. Format: cell-based, human. Particulars: 200 nM; day 14 of culture. The protocol:
5000 peripheral blood CD34+ cells from healthy donors or DBA patients were plated in serum free medium containing human stem cell factor and Epo to support expansion of erythroid progenitors and precursor cells. […] All three CDK8-inhibitors promote proliferation of DBA patient cells.
(§1) To confirm that CDK8/CDK19 inhibitors rescue erythropoiesis also in human DBA patient cells, CD34+ cells were isolated from healthy donors and DBA patients. CD34+ cells were cultured in conditions supporting expansion of erythroid progenitors and precursors. Three CDK8/CDK19 inhibitors and vehicle control were added to the cultures.

Assay [4] has as its system DBA patient CD34+ cells. The assay can be described thus: Erythroid maturation of DBA patient cells in vitro (CD71/CD235a flow cytometry). Format: cell-based, human. The conditions noted are these: 200 nM; day 8 of culture; compared to DMSO. How it is done:
Cells were cultured in the same conditions as in FIG. 9 and analysed by flow cytometry at day 8 of culture. CD71 is a positive marker for early erythroid progenitors while CD71 and CD235a positive cells are mature erythroid precursors.
as §1

In another assay the test system is RPS19-deficient mice. The assay can be described thus: Reticulocyte counts in RPS19-deficient mouse model for DBA. Format: in vivo. The conditions noted are these: oral 10 mg/kg every 12 hours, 5 doses; peripheral blood 48 hours after last treatment. How it is done: Treatment was stopped after 5 doses. 48 hours after last treatment peripheral blood was analysed for reticulocyte counts, which reflects the ongoing production of erythrocytes.
Treatment is stopped after 5 doses. 48 hours after last treatment peripheral blood is analysed for reticulocyte counts, which reflects the ongoing production of erythrocytes. Reticulocyte counts is rescued in RPS19-deficient mice treated with the selective CDK8/CDK19 inhibitors tested. In addition to rescue of reticulocyte and haemoglobin levels, other effects of the tested CDK8/CDK19 inhibitors are determined, in particular their ability to rescue bone marrow hypocellularity, to promote hemapopoetic stem and progenitor development, as well as cell cycle arrest and apoptosis.

For assay [5], the target named is T1, CDK19 (Homo sapiens (Human), UniProt Q9BWU1). In words: 18 selected kinases panel, DiscoveRx LeadHunter Discovery Services. The assay is classed as binding. Particulars: tested on 18 selected kinases. How it is done: DBA-4 was tested on 18 selected kinases by DiscoveRx LeadHunter™ Discovery Services.
T1 sequence (Q9BWU1 whole entry): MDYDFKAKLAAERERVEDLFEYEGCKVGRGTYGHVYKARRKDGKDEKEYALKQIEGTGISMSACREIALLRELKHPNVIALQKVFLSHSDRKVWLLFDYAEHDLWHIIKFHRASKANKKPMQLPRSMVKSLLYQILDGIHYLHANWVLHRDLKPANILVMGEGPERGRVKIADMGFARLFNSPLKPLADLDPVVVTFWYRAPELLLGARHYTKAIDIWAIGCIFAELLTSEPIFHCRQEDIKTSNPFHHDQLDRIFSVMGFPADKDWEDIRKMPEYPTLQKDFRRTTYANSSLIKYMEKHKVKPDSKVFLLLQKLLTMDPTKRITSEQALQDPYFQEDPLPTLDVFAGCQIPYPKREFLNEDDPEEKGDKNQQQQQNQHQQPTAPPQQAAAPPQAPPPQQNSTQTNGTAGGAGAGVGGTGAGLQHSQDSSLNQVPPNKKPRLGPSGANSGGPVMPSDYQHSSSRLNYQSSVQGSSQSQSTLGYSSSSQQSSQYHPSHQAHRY
Assay [6] concerns RPS19-deficient erythroid progenitor cells. In words: 7-AAD FACS, cell survival of RPS19-deficient erythroid progenitors. The assay is classed as cell-based, mouse. An excerpt:
(§2) In addition, the selective CDK8/CDK19 inhibitors DBA-7 and DBA-8 both rescued RPS19-deficient erythroid progenitor cells from apoptosis (FIG. 7) and loss of kit+ progenitor cell maintenance in culture (FIG. 8).

Assay [7] shares this test system. In words: c-kit FACS, maintenance of c-kit+ progenitor cells in culture of RPS19-deficient erythroid progenitors. The assay is classed as cell-based, mouse.
Text: FIG. 8: The selective CDK8/CDK19 inhibitors DBA-7 and DBA-8 rescue the loss of c-kit+ progenitor cell observed in in vitro culture of RPS19-deficient erythroid progenitors.
as §2

Another assay concerns the target CDK8 (Homo sapiens (Human), UniProt P49336). In words: KinomeScan (DiscoveRx) on 468 kinases. Format: binding. Particulars: 0.5 μM. An excerpt:
(§3) Arrows point at CDK8 and CDK19.
(§4) In particular, a compound may be considered to be a CDK8 and/or CDK19 inhibitor if it can inhibit CDK8 and/or CDK19 at a concentration as defined herein above using the KinomeScan assay.

The target of assay [8] is T1, CDK19. In words: KinomeScan (DiscoveRx) on 468 kinases. Format: binding. The conditions noted are these: 0.5 μM.
Text: as §3, §4

Entries after “also recorded” stand apart in the source; their conditions may differ. Structures can show the parent of a compound that is named as a salt.

Sequence of CDK8 (P49336 whole entry): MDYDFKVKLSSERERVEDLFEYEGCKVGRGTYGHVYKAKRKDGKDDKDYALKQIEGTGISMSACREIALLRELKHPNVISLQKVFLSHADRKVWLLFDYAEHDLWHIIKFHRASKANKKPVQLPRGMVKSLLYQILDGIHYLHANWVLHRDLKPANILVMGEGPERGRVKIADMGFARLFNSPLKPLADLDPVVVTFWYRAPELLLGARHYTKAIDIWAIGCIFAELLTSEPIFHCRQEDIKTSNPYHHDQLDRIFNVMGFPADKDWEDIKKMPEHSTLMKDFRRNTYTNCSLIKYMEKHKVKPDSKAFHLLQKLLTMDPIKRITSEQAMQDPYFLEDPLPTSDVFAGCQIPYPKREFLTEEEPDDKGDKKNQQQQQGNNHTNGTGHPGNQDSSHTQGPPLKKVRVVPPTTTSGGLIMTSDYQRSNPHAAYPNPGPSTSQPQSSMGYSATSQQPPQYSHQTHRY

On to `CN(C)c1ccnc2sc(C(N)=O)c(N)c12` [DBA-1], for which the bone anabolic effect entry in assay [1] is recorded as “effect as bone anabolic agents”. In assay [2], the Emax was 25%, the 50% effective concentration (EC50) worked out at 1200 nM and the “rescue of proliferation (in words)” value is reported as “partial dose-dependent rescue of proliferation; also recorded: potent”.
`Cn1cc(-c2ccc(-c3cncc(Cl)c3N3CCC4(CCNC4=O)CC3)cc2)cn1` [DBA-11, 8-[3-chloro-5-[4-(1-methyl-1H-pyrazol-4-yl)phenyl]-4-pyridinyl]-2,8-diazaspiro[4.5]decan-1-one, reference compound]: in assay [2], the Emax came to 50% and the EC50 worked out at 20 nM.
`CN1CCN(C(=O)c2ccc3cc(CCNc4ncnc5ccc(C#N)cc45)ccc3c2)CC1` [DBA-9]: the “proliferation of DBA patient cells (cell counts)” value (“proliferation … (cell counts)” for short) in the assay on DBA patient CD34+ cells [3] is “rescue proliferation”. Further, the “erythroid maturation of DBA patient cells (CD71, CD235a)” value (“erythroid maturation” below) in the assay on DBA patient CD34+ cells [4] is recorded as “increase erythroid maturation”. Also, the Emax in assay [2] is 60%. The reticulocyte counts entry with RPS19-deficient mice is “rescued”.
Turning to `COCc1cc(C)nc2sc(C(N)=O)c(N)c12` [DBA-4], in [2], the Emax turned out to be 28%, the EC50 turned out to be 2800 nM and the “rescue of proliferation (in words)” value is “potent”. Moreover, the “inhibition of CDK19” value against CDK19 [5] is on record as “inhibited”.
For the compound `NC(=O)c1sc2nccc(N3CCCN(c4ccccc4)CC3)c2c1N` [DBA-6], in assay [1], the bone anabolic effect entry is “effect as bone anabolic agents”. In addition, in [2], the Emax was found to be 30% and the “rescue of proliferation (in words)” value is “partial dose-dependent rescue of proliferation; also recorded: potent”.
With `CCc1nc2sc(C(N)=O)c(N)c2c2c1CCCC2` [DBA-3], in assay [2], the Emax was determined as 38%, the EC50 was found to be 11000 nM and the “rescue of proliferation (in words)” value was “potent”.
For `Cc1c(C(N)=O)sc2nc(C(F)(F)F)cc(N)c12` [DBA-5], in that order: 21%, 1700 nM and “potent”.
On to `Cc1c(Br)c(Br)c2c3c1nc(N1CCNCC1)n3CCC2` [DBA-10, 7,8-dibromo-9-methyl-2-(piperazin-1-yl)-5,6-dihydro-4H-imidazo[4,5,1-ij]quinoline hydrochloride, reference compound], for which the “proliferation … (cell counts)” value in the assay on DBA patient CD34+ cells [3] is “rescue proliferation”. In addition, in the assay on DBA patient CD34+ cells [4], the “erythroid maturation” value was “increase erythroid maturation”. In [2], the Emax was 60% and the EC50 is 20 nM.
Consider `N#Cc1ccc2ncnc(NCCc3ccccc3)c2c1` [DBA-8, reference compound], for which, in assay [2], the Emax amounted to 80%, the EC50 turned out to be 500 nM and the “rescue of proliferation (in words)” value is “partial dose-dependent rescue of proliferation”. In addition, the “rescue from apoptosis (7-AAD)” value in assay [6] is reported as “rescued”. Moreover, the “rescue of loss of kit+ progenitor cell maintenance in culture” value in assay [7] is “rescued”.
Regarding `COc1ccc(-c2cc(C3CC3)nc3sc(C(N)=O)c(N)c23)cc1` [DBA-2], in assay [2], the Emax came to 45%, the EC50 was 15000 nM and the “rescue of proliferation (in words)” value is “potent”.
Regarding `CN(C)C(=O)Cc1ccc(N2CCCN(c3ccnc4sc(C(N)=O)c(N)c34)CC2)cc1` [DBA-7], in the assay on DBA patient CD34+ cells [3], the “proliferation … (cell counts)” value is recorded as “rescue proliferation”. The bone anabolic effect result in assay [1] is given as “effect as bone anabolic agents”. The “erythroid maturation” value in the assay on DBA patient CD34+ cells [4] is recorded as “increase erythroid maturation”. In addition, in assay [2], the Emax was 82%, it took 25 nM to reach a half-maximal effect (EC50) and the “rescue of proliferation (in words)” value is “potent; also recorded: partial dose-dependent rescue of proliferation”. In [6], the “rescue from apoptosis (7-AAD)” value was “rescued”. Further, at CDK8, the “inhibition of CDK8” value is recorded as “very selectively inhibited”. Also, the “inhibition of CDK19” value on CDK19 [8] is “very selectively inhibited”. Further, the “rescue of loss of kit+ progenitor cell maintenance in culture” value in assay [7] was “rescued”.

Source of the values: patent US11471446B2, “Compounds for treatment of hypoproliferative disorders” (LU LICENSE AB, priority 2015, dated 2022).
